The results in this text go back to patent publication US9375477B2 (GALDERMA RESEARCH & DEVELOPMENT, priority 2012, dated 2016).

The nature of this data set: In vitro cutaneous penetration on human skin (Franz cell). The data set is classed as in vitro ADME. To be noted: 16 hours after application; the 3 formulae evaluated (Examples 2 and 9, reference gel). Here is the method: The cutaneous penetration studies performed on the formulations of the invention containing an active principle of the retinoid class were performed in vitro on whole human abdominal skin after excision, this skin being mounted on a Franz cell.
After topical application of a given amount of the formulation to the surface of the skin, the penetration of the active principle is measured 16 hours after application.
The amount of active principle of the retinoid class is measured in the various skin compartments: stratum corneum, epidermis, dermis and also in the receiving liquid.
The bioanalysis was carried out by positive electrospray ionization tandem mass spectrometry, and using a Xevo machine (Waters).
The quantification limit for compound A is 0.5 ng/mL. The LC/MS/MS conditions developed made it possible to detect up to 0.1% of the dose applied in each of the compartments (dose not absorbed, stratum, epidermis, dermis and receiving liquid). The appropriateness, accuracy and repeatability of the method were checked in each of the matrices, and made it possible to validate the bioanalysis method.
In this type of “single point” study, the parameters retained are: • a. the distribution profile in the various compartments (qualitative data) • b. the penetration into the epidermis+dermis compartment (numerical data)

With `CC(C)(C)c1cc(-c2cc(-c3ccc(C(=O)O)cc3)ccc2OCCO)ccc1N1CCCC1` [Compound A, 3″-tert-butyl-4′-(2-hydroxyethoxy)-4″-pyrrolidin-1-yl-[1,1′; 3′,1″]-terphenyl-4-carboxylic acid], the “Compound A in the receiving liquid” value is given as “not detected”.
